Laboratory results reported in patent publication US20240091214A1, “LONAFARNIB FOR USE IN THE TREATMENT OF VIRAL INFECTIONS” (TWINCORE ZENTRUM FÜR EXPERIMENTELLE UND KLINISCHE …, priority 2021, published 2024).
Read-outs that look alike come from different tables or passages of the source.

Assays:
[1] = test system: clinical HRSV isolate HRSV H01 ON1; test: Plaque reduction test with clinical HRSV isolate; format: cell-based, human respiratory syncytial virus (HRSV); details: clinical HRSV H01 ON1 isolate (FIG. 4)
Method: The respective concentrations of lonafarnib, tipifarnib and DMSO (control; final concentration 1%) administered to the cells are indicated on the respective well.
To confirm the antiviral effect of lonafarnib, an infection assay was performed with the clinical HRSV isolate HRSV H01 ON1. The infection efficiency was assessed in the plaque reduction test, i.e. independently of an indirect reporter gene measurement. […] (FIG. 4)

HRSV = HRSV infection of differentiated BCi-NS1.1 air-liquid-interface cultures, viral load by qRT-PCR; format: cell-based, human respiratory syncytial virus (HRSV); details: differentiated human airway epithelial cells (BCi-NS1.1), HBSS rinsing fluid and harvested cells, different doses and time points (FIG. 7)
Source text: Shown are viral loads measured by qRT-PCR after HRSV infection in differentiated BCi-NS1.1 cells and treatment with lonafanib at different doses. right: viral load in HBSS rinsing fluid at different time points after infection. left: viral load of harvested cells, also at different time points after infection.
Then, the antiviral effect of lonafarnib against HRSV was shown in differentiated human airway epithelial cells. Therefore, BCi NS1.1 cells were differentiated and used in so-called “air-liquid-interface” cultures to form a pseudo-stratified lung epithelium. The cells were then infected with HRSV and treated with lonafarnib at different concentrations. The compounds were added to the medium from the basolateral pole of the cell (“liquid interface”, homologous to the blood stream) as well as administered apically (homologous to local treatment via inhalation). At different time points post infection, the cell surface (“air interface”, apical side of the cell culture, homologous to the lumen of the lung) was rinsed with HBSS to remove released viruses from the cell surface. The viral load in the HBSS rinsing fluid was determined by qRT-PCR. Also, at each time point cells were lysed and the virus load in the cell extract was determined by qRT-PCR. (FIG. 7)

[2] = test system: Hepatitis Delta Virus (HDV); test: Production of infectious Hepatitis Delta Virus in transfected Huh7-hNTCP cells; format: cell-based; details: increasing concentrations (FIG. 8)
Method: 16 h later medium was exchanged and the cells were then cultured in absence or presence of 1% DMSO or increasing concentrations of lonafarnib or tipifarnib; (A) 10 days post transfection, translation of the HDV viral genome in the cells was confirmed by immunofluorescence and percentage of positive cells was calculated; (B) production of infectious progeny HDV was assessed by incubating serial dilutions of their supernatants on naïve Huh7-hNTCP, followed by staining for the HD-Ag—dashed lines indicates the detection threshold of the assay.

HRSV-B virus = test: HRSV-B infection assay, number of infected cells; format: cell-based; details: % compared to DMSO control (FIG. 9)
Source text: However, […].

[3] = test system: HRSV virus population with resistance to a fusion inhibitor (mutations within the F protein); test: Infection assay with HRSV population resistant to an HRSV fusion inhibitor, intracellular FACS staining; format: cell-based, human respiratory syncytial virus (HRSV); details: fusion inhibitor adapted virus compared with DMSO adapted virus (FIG. 6)
Method: The most significant reduction of infected cells is shown in the DMSO adapted virus population by administration of lonafarnib. Dark grey: DMSO adapted virus; light grey: fusion inhibitor adapted virus.
Further, the efficacy of lonafarnib on HRSV virus population that had previously developed resistance to an HRSV fusion inhibitor was investigated. The effectiveness of HRSV infection (number of infected cells) was determined by intracellular FACS staining. […] The HRSV virus population with resistance to a fusion inhibitor was also less susceptible to inhibition by lonafarnib.

[4] = test system: HRSV luciferase reporter virus; test: HRSV luciferase reporter virus infection assay (first and second round of infection); format: cell-based, human respiratory syncytial virus (HRSV); details: for IC50: human respiratory syncytial virus, 24 h
Source text: The dose-response relationship of lonafarnib to the HRSV reporter virus is shown on the right. Below are the IC50 and IC90 values of the first round of infection and the second round of infection, respectively, and the 50% cytotoxic concentration of lonafarnib (CC50).
The chemical structure of the farneslytransferase inhibitors lonafarnib and tipifarnib is shown above. The dose-response relationship of these agents against the HRSV luciferase reporter virus is shown below.
Efficiency of HRSV infection-inhibition by lonafarnib was investigated by a series of infection assays. In the first round of infection, the effect of lonafarnib on the virus' cell entry, which includes RNA transcription, translation and replication up to 24 hours after infection, was investigated. In the second round of infection, the cell culture supernatant was harvested and transferred to naive cells at 24 h after primary infection. In these cells, again 24 h later, the infection efficiency was determined using the luciferase reporter. In this way, the efficiency was analyzed over a longer period of time, including the spread of the virus and the re-infection of cells. The IC50 values were determined at 0.02 μM (round 1) and 0.004 μM (round 2). (FIG. 2)
In a further trial, the effect of lonafarnib compared to the farnesyltransferase inhibitor tipifarnib on HRSV-infected cell culture was then analyzed and compared.

[5] = cited from earlier work
HRSV H01 ON1 isolate = test: Infection assay with HRSV H01 ON1 isolate, intracellular FACS staining against a virus own protein; format: cell-based, human respiratory syncytial virus (HRSV)
Method: Both graphs show data from analysing the viral infection efficiency by intracellular flow cytometry staining against a virus own protein. […] MFI: mean fluorescence intensity
Another infection assay was carried out with the HRSV H01 ON1 isolate. The analysis/quantification of the viral infection efficiency was carried out by intracellular FACS staining against a virus own protein. […] The amount of viral proteins in the infected cells was […] by the administration of lonafarnib.

[6] = animals, formulated in crystalline forms; cited from earlier work

## NC(=O)N1CCC(CC(=O)N2CCC([C@H]3c4ncc(Br)cc4CCc4cc(Cl)cc(Br)c43)CC2)CC1 [lonafarnib]
[1]
  plaque formation (plaque size and number): reduced plaque size and number in a dose-dependent manner
HRSV
  inhibition of HRSV infection (viral load by qRT-PCR): inhibits HRSV infection
[2]
  inhibition of Hepatitis Delta infections: equally inhibit Hepatitis Delta infections
HRSV-B virus
  inhibition of HRSV-B infection (number of infected cells): selectively and efficiently inhibits the number of infected cells
[3]
  activity against fusion inhibitor-resistant HRSV population (number of infected cells): reduced activity
[4]; HRSV-infected cell culture, dose-response, comparison of lonafarnib and tipifarnib (FIG. 3)
  suppression of HRSV infection: highly effective
[4]; read-out: IC50, first round of infection
  IC50: 20 nM
[4]; read-out: IC50, second round of infection
  IC50: 4 nM
[5]; acidic or basic conditions
  stability in solution: will hydrolyze
[5]
  water solubility: poorly water soluble
[5]; neutral pH
  stability in solution: stable at neutral pH
[5]; solid state, thermal
  stability in the solid state: thermally stable
HRSV H01 ON1 isolate; intracellular FACS staining (FIG. 5 left)
  number of infected cells: reduced the number of infected cells in a dose-dependent manner
HRSV H01 ON1 isolate; intracellular FACS staining (FIG. 5 right)
  amount of viral proteins in the infected cells (MFI): not reduced
[6]
  bioavailability: low and variable
